Source: patent US11160280B2, “Pesticial compounds” (BASF SE, priority 2017, dated 2021)

Tests used:
Format in all cases: in vivo
[1] = system: Orchid thrips (Dichromothrips corbetti); experiment: Action on orchid thrips (Dichromothrips corbetti), floral-immersion technique; conditions: adult thrips, mortality 72 hours after treatment, read-out: mortality in comparison with untreated controls
Method: Example B2: Action on Orchid thrips (Dichromothrips corbetti)
Dichromothrips corbetti adults used for bioassay were obtained from a colony maintained continuously under laboratory conditions. For testing purposes, the test compound is diluted in a 1:1 mixture of acetone:water (vol:vol), plus Kinetic® HV at a rate of 0.01% v/v.
Thrips potency of each compound was evaluated by using a floral-immersion technique. All petals of individual, intact orchid flowers were dipped into treatment solution and allowed to dry in Petri dishes. Treated petals were placed into individual re-sealable plastic along with about […]. All test arenas were held under continuous light and a temperature of about 28° C. for duration of the assay. After 3 days, the numbers of live thrips were counted on each petal. The percent mortality was recorded 72 hours after treatment.

[2] = system: Diamond Back Moth (Plutella xylostella); experiment: Action on diamond back moth (Plutella xylostella), cabbage leaf dip; conditions: foliar, 3rd instar larvae on dipped cabbage leaves, mortality 72 hours after treatment, read-out: mortality in comparison with untreated controls
Method: Example B6: Action on Diamond Back Moth (Plutella xylostella)
The active compound is dissolved at the desired concentration in a mixture of 1:1 (vol:vol) distilled water:acetone. Surfactant (Kinetic® HV) is added at a rate of 0.01% (vol/vol). The test solution is prepared at the day of use.
Leaves of cabbage were dipped in test solution and air-dried. Treated leaves were placed in petri dishes lined with moist filter paper and inoculated with ten 3rd instar larvae. Mortality was recorded 72 hours after treatment. Feeding damages were also recorded using a scale of 0-100%.

[3] = system: Southern Armyworm (Spodoptera eridania), 2nd Instar Larvae; experiment: Action on southern armyworm (Spodoptera eridania), 2nd instar larvae on sprayed lima bean plants; conditions: 96 h, 2nd instar larvae on lima bean plants, 4 days after treatment, read-out: mortality in comparison with untreated controls
Method: Example B7: Action on Southern Armyworm (Spodoptera eridania), 2nd Instar Larvae
The active compounds were formulated by a Tecan liquid handler in 100% cyclohexanone as a 10,000 ppm solution supplied in tubes. The 10,000 ppm solution was serially diluted in 100% cyclohexanone to make interim solutions. These served as stock solutions for which final dilutions were made by the Tecan in 50% acetone:50% water (v/v) into 10 or 20 ml glass vials. A nonionic surfactant (Kinetic®) was included in the solution at a volume of 0.01% (v/v). The vials were then inserted into an automated electrostatic sprayer equipped with an atomizing nozzle for application to plants/insects.
Lima bean plants (variety Sieva) were grown 2 plants to a pot and selected for treatment at the 1st true leaf stage. Test solutions were sprayed onto the foliage by an automated electrostatic plant sprayer equipped with an atomizing spray nozzle. The plants were dried in the sprayer fume hood and then removed from the sprayer. Each pot was placed into perforated plastic bags with a zip closure. About 10 to 11 armyworm larvae were placed into the bag and the bags zipped closed. Test plants were maintained in a growth room at about 25° C. and about 20-40% relative humidity for 4 days, avoiding direct exposure to fluorescent light (24 hour photoperiod) to prevent trapping of heat inside the bags. Mortality and reduced feeding were assessed 4 days after treatment, compared to untreated control plants.

[4] = system: tobacco budworm (Heliothis virescens); experiment: Action on tobacco budworm (Heliothis virescens), eggs on insect diet in microtiter plates; conditions: 120 h, egg and larval mortality after 5 days, read-out: mortality in comparison with untreated controls
Method: Example B5: Action on Tobacco Budworm (Heliothis virescens)
For evaluating control of tobacco budworm (Heliothis virescens) the test unit consisted of 96-well-microtiter plates containing an insect diet and 15-25 H. virescens eggs.
The compounds were formulated using a solution containing 75% v/v water and 25% v/v DMSO. Different concentrations of formulated compounds were sprayed onto the insect diet at 10 μl, using a custom built micro atomizer, at two replications.
After application, microtiter plates were incubated at about 28±1° C. and about 80±5% relative humidity for 5 days. Egg and larval mortality was then visually assessed.

[5] = system: boll weevil (Anthonomus grandis); experiment: Action on boll weevil (Anthonomus grandis), eggs on insect diet in microtiter plates; conditions: 120 h, egg and larval mortality after 5 days, read-out: mortality in comparison with untreated controls
Method: Example B3: Action on Boll Weevil (Anthonomus grandis)
For evaluating control of boll weevil (Anthonomus grandis) the test unit consisted of 96-well-microtiter plates containing an insect diet and 5-10 A. grandis eggs.
The compounds were formulated using a solution containing 75% v/v water and 25% v/v DMSO. Different concentrations of formulated compounds were sprayed onto the insect diet at 5 μl, using a custom built micro atomizer, at two replications.
After application, microtiter plates were incubated at about 25±1° C. and about 75±5% relative humidity for 5 days. Egg and larval mortality was then visually assessed.

[6] = system: Silverleaf Whitefly (Bemisia argentifoli) (Adults); experiment: Action on silverleaf whitefly (Bemisia argentifoli) adults on sprayed cotton plants; conditions: Bemisia argentifolii, 72 h, mortality 3 days after treatment, read-out: mortality in comparison with untreated controls
Method: Example B4: Action on Silverleaf Whitefly (Bemisia argentifoli) (Adults)
The active compounds were formulated by a Tecan liquid handler in 100% cyclohexanone as a 10,000 ppm solution supplied in tubes. The 10,000 ppm solution was serially diluted in 100% cyclohexanone to make interim solutions. These served as stock solutions for which final dilutions were made by the Tecan in 50% acetone:50% water (v/v) into 5 or 10 ml glass vials. A nonionic surfactant (Kinetic®) was included in the solution at a volume of 0.01% (v/v). The vials were then inserted into an automated electrostatic sprayer equipped with an atomizing nozzle for application to plants/insects.
Cotton plants at the cotyledon stage (one plant per pot) were sprayed by an automated electrostatic plant sprayer equipped with an atomizing spray nozzle. The plants were dried in the sprayer fume hood and then removed from the sprayer. Each pot was pla-ced into a plastic cup and about 10 to 12 whitefly adults (approximately 3-5 days old) were introduced. The insects were collected using an aspirator and a nontoxic Tygon® tubing connected to a barrier pipette tip. The tip, containing the collected insects, was then gently inserted into the soil containing the treated plant, allowing insects to crawl out of the tip to reach the foliage for feeding. Cups were covered with a reusable screened lid. Test plants were maintained in a growth room at about 25° C. and about 20-40% relative humidity for 3 days, avoiding direct exposure to fluorescent light (24 hour photoperiod) to prevent trapping of heat inside the cup. Mortality was assessed 3 days after treatment, compared to untreated control plants.

[7] = system: yellow fever mosquito (Aedes aegypti); experiment: whole plant or invertebrate; conditions: 48 h, larval mortality visually assessed after 2 days, read-out: mortality in comparison with untreated controls
Method: Example B1: Action on Yellow Fever Mosquito (Aedes aegypti)
For evaluating control of yellow fever mosquito (Aedes aegypti) the test unit consisted of 96-well-microtiter plates containing 200 μl of tap water per well and 5-15 freshly hatched A. aegypti larvae.
The active compounds were formulated using a solution containing 75% (v/v) water and 25% (v/v) DMSO. Different concentrations of formulated compounds or mixtures were sprayed onto the insect diet at 2.5 μl, using a custom built micro atomizer, at two replications.
After application, microtiter plates were incubated at 28+1° C., 80+5% RH for 2 days. Larval mortality was then visually assessed.

CC(C)c1ccccc1NC(=S)N/N=C/c1ccc2c(COc3ccc(OC(F)(F)F)cc3)nn(C)c2c1 [Example C-3, 1-(2-isopropylphenyl)-3-[(E)-[1-methyl-3-[[4-(trifluoromethoxy)phenoxy]methyl]indazol-6-yl]methyleneamino]thiourea]
≥ 75%: mortality at 500 ppm [1] | mortality at 500 ppm [2] | mortality at 300 ppm [3] | mortality at 800 ppm [4] | mortality at 800 ppm [5] | mortality at 300 ppm [6] | mortality at 800 ppm [7]

CO[C@@H]1[C@@H](OC)[C@H](C)O[C@@H](OC(=O)Nc2ccc3c(C(=O)Nc4ccc(OC(F)(F)F)cc4)nn(C)c3c2)[C@@H]1OC [Example C-6, [(2S,3R,4R,5S,6S)-3,4,5-trimethoxy-6-methyl-tetrahydropyran-2-yl] N-[1-methyl-3-[[4-(trifluoromethoxy)phenyl]carbamoyl]indazol-6-yl]carbamate]
≥ 75%: mortality at 500 ppm [1] | mortality at 500 ppm [2] | mortality at 300 ppm [3] | mortality at 800 ppm [4] | mortality at 800 ppm [5] | mortality at 300 ppm [6] | mortality at 800 ppm [7]

CC(C)c1ccccc1NC(=S)N/N=C/c1ccc2c(C(C)Oc3ccc(OC(F)(F)F)cc3)nn(C)c2c1 (stereo not drawn) [Example C-12, 1-(2-isopropylphenyl)-3-[(E)-[1-methyl-3-[1-[4-(trifluoromethoxy)phenoxy]ethyl]indazol-6-yl]methyleneamino]thiourea]
≥ 75%: mortality at 500 ppm [1] | mortality at 500 ppm [2] | mortality at 300 ppm [3] | mortality at 800 ppm [4] | mortality at 800 ppm [5] | mortality at 300 ppm [6] | mortality at 800 ppm [7]

CC(C)c1ccccc1N1C(=O)CS/C1=N\N=C\c1ccc2c(C(C)Oc3ccc(OC(F)(F)F)cc3)nn(C)c2c1 (stereo not drawn) [Example C-13, (2Z)-3-(2-isopropylphenyl)-2-[(E)-[1-methyl-3-[1-[4-(trifluoromethoxy)phenoxy]ethyl]indazol-6-yl]methylenehydrazono]thiazolidin-4-one]
≥ 75%: mortality at 500 ppm [1] | mortality at 500 ppm [2] | mortality at 300 ppm [3] | mortality at 800 ppm [4] | mortality at 300 ppm [6] | mortality at 800 ppm [7]

CC(C)c1ccccc1/N=C1\SCC(=O)N1/N=C/c1ccc2c(C(C)Oc3ccc(OC(F)(F)F)cc3)nn(C)c2c1 (stereo not drawn) [Example C-14, (2Z)-2-(2-isopropylphenyl)imino-3-[(E)-[1-methyl-3-[1-[4-(trifluoromethoxy)phenoxy]ethyl]indazol-6-yl]methyleneamino]thiazolidin-4-one]
≥ 75%: mortality at 500 ppm [1] | mortality at 500 ppm [2] | mortality at 300 ppm [3] | mortality at 800 ppm [4] | mortality at 300 ppm [6] | mortality at 800 ppm [7]
